Test results published in the supplement of paper PMC10307832.

Assays:
Assay in all cases: relative viability (nuclei count vs DMSO), 5 days (fraction); higher = more cells survive
[1] = compound: CN(C)C[C@@H]1CCn2cc(c3ccccc32)C2=C(C(=O)NC2=O)c2cn(c3ccccc23)CCO1 [Ruboxistaurin] + CC(=O)Nc1cccc(-n2c(=O)n(C3CC3)c(=O)c3c(Nc4ccc(I)cc4F)n(C)c(=O)c(C)c32)c1 [Trametinib] (partner 0.02 µM)
Summary of the method: (§1)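 Values are medians from duplicate plates. Each reflects relative viability, defined as the nuclei count of treated wells over that of vehicle wells. Lung cancer cell lines in 1536-well plates were pin-tool dosed one day after seeding with one drug alone or with a fixed anchor-drug dose plus five library-drug doses (not always all listed) in √10 steps, then fixed, stained and imaged at 4× after 5 days.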

[2] = compound: CN(C)C[C@@H]1CCn2cc(c3ccccc32)C2=C(C(=O)NC2=O)c2cn(c3ccccc23)CCO1 [Ruboxistaurin] + CC(=O)c1c(C)c2cnc(Nc3ccc(N4CCNCC4)cn3)nc2n(C2CCCC2)c1=O [Palbociclib] (partner 0.5 µM)
Summary of the method: as §1

[3] = compound: CN(C)C[C@@H]1CCn2cc(c3ccccc32)C2=C(C(=O)NC2=O)c2cn(c3ccccc23)CCO1 [Ruboxistaurin] + Cc1cc(Nc2cc(N3CCN(C)CC3)nc(Sc3ccc(NC(=O)C4CC4)cc3)n2)n[nH]1 [Tozasertib] (partner 0.1 µM)
Summary of the method: as §1

[4] = compound: CN(C)C[C@@H]1CCn2cc(c3ccccc32)C2=C(C(=O)NC2=O)c2cn(c3ccccc23)CCO1 [Ruboxistaurin] + Cc1nc(Nc2ncc(C(=O)Nc3c(C)cccc3Cl)s2)cc(N2CCN(CCO)CC2)n1 [Dasatinib] (partner 0.075 µM)
Summary of the method: as §1

[5] = compound: CN(C)C[C@@H]1CCn2cc(c3ccccc32)C2=C(C(=O)NC2=O)c2cn(c3ccccc23)CCO1 [Ruboxistaurin] + NC(=O)Nc1cc(-c2cccc(F)c2)sc1C(=O)N[C@H]1CCCNC1 [AZD7762] (partner 0.2 µM)
Summary of the method: as §1

## NCI-H1395
[1]; first compound 0.08 µM
  relative viability: 1.15
[1]; first compound 0.8 µM
  relative viability: 0.846
[1]; first compound 2.53 µM
  relative viability: 0.988
[1]; first compound 8 µM
  relative viability: 1.09
[2]; first compound 0.08 µM
  relative viability: 0.657
[2]; first compound 0.8 µM
  relative viability: 0.579
[2]; first compound 2.53 µM
  relative viability: 0.63
[2]; first compound 8 µM
  relative viability: 0.553
[3]; first compound 0.08 µM
  relative viability: 0.774
[3]; first compound 0.8 µM
  relative viability: 0.709
[3]; first compound 2.53 µM
  relative viability: 0.79
[3]; first compound 8 µM
  relative viability: 0.7
[4]; first compound 0.08 µM
  relative viability: 0.444
[4]; first compound 0.8 µM
  relative viability: 0.427
[4]; first compound 2.53 µM
  relative viability: 0.386
[4]; first compound 8 µM
  relative viability: 0.372
[5]; first compound 0.08 µM
  relative viability: 0.41
[5]; first compound 0.8 µM
  relative viability: 0.411
[5]; first compound 2.53 µM
  relative viability: 0.419
[5]; first compound 8 µM
  relative viability: 0.418

## NCI-H2087
[1]; first compound 0.08 µM
  relative viability: 0.202
[1]; first compound 0.8 µM
  relative viability: 0.135
[1]; first compound 2.53 µM
  relative viability: 0.205
[1]; first compound 8 µM
  relative viability: 0.186
[2]; first compound 0.08 µM
  relative viability: 0.28
[2]; first compound 0.8 µM
  relative viability: 0.253
[2]; first compound 2.53 µM
  relative viability: 0.285
[2]; first compound 8 µM
  relative viability: 0.291
[3]; first compound 0.08 µM
  relative viability: 0.234
[3]; first compound 0.8 µM
  relative viability: 0.192
[3]; first compound 2.53 µM
  relative viability: 0.241
[3]; first compound 8 µM
  relative viability: 0.159
[4]; first compound 0.08 µM
  relative viability: 0.889
[4]; first compound 0.8 µM
  relative viability: 0.783
[4]; first compound 2.53 µM
  relative viability: 0.835
[4]; first compound 8 µM
  relative viability: 0.701
[5]; first compound 0.08 µM
  relative viability: 1.46
[5]; first compound 0.8 µM
  relative viability: 1.17
[5]; first compound 2.53 µM
  relative viability: 1.38
[5]; first compound 8 µM
  relative viability: 1.44

## H3255
[1]; first compound 0.08 µM
  relative viability: 0.635
[1]; first compound 0.8 µM
  relative viability: 0.479
[1]; first compound 2.53 µM
  relative viability: 0.644
[1]; first compound 8 µM
  relative viability: 0.536
[2]; first compound 0.08 µM
  relative viability: 0.318
[2]; first compound 0.8 µM
  relative viability: 0.336
[2]; first compound 2.53 µM
  relative viability: 0.329
[2]; first compound 8 µM
  relative viability: 0.364
[3]; first compound 0.08 µM
  relative viability: 0.658
[3]; first compound 0.8 µM
  relative viability: 0.603
[3]; first compound 2.53 µM
  relative viability: 0.714
[3]; first compound 8 µM
  relative viability: 0.836
[4]; first compound 0.08 µM
  relative viability: 0.495
[4]; first compound 0.8 µM
  relative viability: 0.353
[4]; first compound 2.53 µM
  relative viability: 0.347
[4]; first compound 8 µM
  relative viability: 0.335
[5]; first compound 0.08 µM
  relative viability: 1.05
[5]; first compound 0.8 µM
  relative viability: 0.984
[5]; first compound 2.53 µM
  relative viability: 0.924
[5]; first compound 8 µM
  relative viability: 0.97

## NCI-H23
[1]; first compound 0.08 µM
  relative viability: 0.375
[1]; first compound 0.8 µM
  relative viability: 0.346
[1]; first compound 2.53 µM
  relative viability: 0.409
[1]; first compound 8 µM
  relative viability: 0.32
[2]; first compound 0.08 µM
  relative viability: 0.492
[2]; first compound 0.8 µM
  relative viability: 0.445
[2]; first compound 2.53 µM
  relative viability: 0.53
[2]; first compound 8 µM
  relative viability: 0.461
[3]; first compound 0.08 µM
  relative viability: 0.446
[3]; first compound 0.8 µM
  relative viability: 0.304
[3]; first compound 2.53 µM
  relative viability: 0.357
[3]; first compound 8 µM
  relative viability: 0.368
[4]; first compound 0.08 µM
  relative viability: 0.849
[4]; first compound 0.8 µM
  relative viability: 0.732
[4]; first compound 2.53 µM
  relative viability: 0.769
[4]; first compound 8 µM
  relative viability: 0.794
[5]; first compound 0.08 µM
  relative viability: 0.234
[5]; first compound 0.8 µM
  relative viability: 0.262
[5]; first compound 2.53 µM
  relative viability: 0.185
[5]; first compound 8 µM
  relative viability: 0.279

## HCC-827
[1]; first compound 0.08 µM
  relative viability: 0.555
[1]; first compound 0.8 µM
  relative viability: 0.499
[1]; first compound 2.53 µM
  relative viability: 0.517
[1]; first compound 8 µM
  relative viability: 0.533
[2]; first compound 0.08 µM
  relative viability: 0.529
[2]; first compound 0.8 µM
  relative viability: 0.478
[2]; first compound 2.53 µM
  relative viability: 0.621
[2]; first compound 8 µM
  relative viability: 0.489
[3]; first compound 0.08 µM
  relative viability: 0.43
[3]; first compound 0.8 µM
  relative viability: 0.393
[3]; first compound 2.53 µM
  relative viability: 0.423
[3]; first compound 8 µM
  relative viability: 0.423
[4]; first compound 0.08 µM
  relative viability: 0.36
[4]; first compound 0.8 µM
  relative viability: 0.241
[4]; first compound 2.53 µM
  relative viability: 0.327
[4]; first compound 8 µM
  relative viability: 0.278
[5]; first compound 0.08 µM
  relative viability: 0.26
[5]; first compound 0.8 µM
  relative viability: 0.199
[5]; first compound 2.53 µM
  relative viability: 0.239
[5]; first compound 8 µM
  relative viability: 0.201

## HCC-78
[1]; first compound 0.08 µM
  relative viability: 0.886
[1]; first compound 0.8 µM
  relative viability: 0.711
[1]; first compound 2.53 µM
  relative viability: 0.738
[1]; first compound 8 µM
  relative viability: 0.912
[2]; first compound 0.08 µM
  relative viability: 0.509
[2]; first compound 0.8 µM
  relative viability: 0.47
[2]; first compound 2.53 µM
  relative viability: 0.497
[2]; first compound 8 µM
  relative viability: 0.501
[3]; first compound 0.08 µM
  relative viability: 0.368
[3]; first compound 0.8 µM
  relative viability: 0.352
[3]; first compound 2.53 µM
  relative viability: 0.321
[3]; first compound 8 µM
  relative viability: 0.393
[4]; first compound 0.08 µM
  relative viability: 0.52
[4]; first compound 0.8 µM
  relative viability: 0.399
[4]; first compound 2.53 µM
  relative viability: 0.377
[4]; first compound 8 µM
  relative viability: 0.283
[5]; first compound 0.08 µM
  relative viability: 0.735
[5]; first compound 0.8 µM
  relative viability: 0.549
[5]; first compound 2.53 µM
  relative viability: 0.715
[5]; first compound 8 µM
  relative viability: 0.536

## NCI-H1975
[1]; first compound 0.08 µM
  relative viability: 0.573
[1]; first compound 0.8 µM
  relative viability: 0.336
[1]; first compound 2.53 µM
  relative viability: 0.416
[1]; first compound 8 µM
  relative viability: 0.331
[2]; first compound 0.08 µM
  relative viability: 0.648
[2]; first compound 0.8 µM
  relative viability: 0.512
[2]; first compound 2.53 µM
  relative viability: 0.637
[2]; first compound 8 µM
  relative viability: 0.605
[3]; first compound 0.08 µM
  relative viability: 0.851
[3]; first compound 0.8 µM
  relative viability: 0.54
[3]; first compound 2.53 µM
  relative viability: 0.384
[3]; first compound 8 µM
  relative viability: 0.189
[4]; first compound 0.08 µM
  relative viability: 0.381
[4]; first compound 0.8 µM
  relative viability: 0.278
[4]; first compound 2.53 µM
  relative viability: 0.291
[4]; first compound 8 µM
  relative viability: 0.257
[5]; first compound 0.08 µM
  relative viability: 0.784
[5]; first compound 0.8 µM
  relative viability: 0.639
[5]; first compound 2.53 µM
  relative viability: 0.686
[5]; first compound 8 µM
  relative viability: 0.601

## CAL-12T
[1]; first compound 0.08 µM
  relative viability: 0.303
[1]; first compound 0.8 µM
  relative viability: 0.347
[1]; first compound 2.53 µM
  relative viability: 0.323
[1]; first compound 8 µM
  relative viability: 0.399
[2]; first compound 0.08 µM
  relative viability: 0.476
[2]; first compound 0.8 µM
  relative viability: 0.426
[2]; first compound 2.53 µM
  relative viability: 0.419
[2]; first compound 8 µM
  relative viability: 0.483
[3]; first compound 0.08 µM
  relative viability: 0.371
[3]; first compound 0.8 µM
  relative viability: 0.292
[3]; first compound 2.53 µM
  relative viability: 0.301
[3]; first compound 8 µM
  relative viability: 0.211
[4]; first compound 0.08 µM
  relative viability: 0.339
[4]; first compound 0.8 µM
  relative viability: 0.324
[4]; first compound 2.53 µM
  relative viability: 0.301
[4]; first compound 8 µM
  relative viability: 0.28
[5]; first compound 0.08 µM
  relative viability: 0.691
[5]; first compound 0.8 µM
  relative viability: 0.661
[5]; first compound 2.53 µM
  relative viability: 0.748
[5]; first compound 8 µM
  relative viability: 0.65

## NCI-H2126
[1]; first compound 0.08 µM
  relative viability: 0.617
[1]; first compound 0.8 µM
  relative viability: 0.552
[1]; first compound 2.53 µM
  relative viability: 0.617
[1]; first compound 8 µM
  relative viability: 0.541
[2]; first compound 0.08 µM
  relative viability: 0.341
[2]; first compound 0.8 µM
  relative viability: 0.384
[2]; first compound 2.53 µM
  relative viability: 0.367
[2]; first compound 8 µM
  relative viability: 0.395
[3]; first compound 0.08 µM
  relative viability: 0.975
[3]; first compound 0.8 µM
  relative viability: 0.803
[3]; first compound 2.53 µM
  relative viability: 0.923
[3]; first compound 8 µM
  relative viability: 0.696
[4]; first compound 0.08 µM
  relative viability: 0.697
[4]; first compound 0.8 µM
  relative viability: 0.557
[4]; first compound 2.53 µM
  relative viability: 0.611
[4]; first compound 8 µM
  relative viability: 0.539
[5]; first compound 0.08 µM
  relative viability: 1.03
[5]; first compound 0.8 µM
  relative viability: 0.91
[5]; first compound 2.53 µM
  relative viability: 0.981
[5]; first compound 8 µM
  relative viability: 0.962
